In paper PMC7998563 (Viruses, 2021) one finds IC50 data, which are given here for 1 compound.

The assay has as its target T1, HCMV core nuclear egress complex (core NEC), pUL50-pUL53 (Human herpesvirus 5 strain AD169, UniProt P16791+P16794).
T1 construct: gene NEC2; pUL50 His-tagged, pUL53 coated on plate; heterodimer
Briefly: ELISA-type pUL50-pUL53 interaction inhibition assay, anti-His-HRP detection. In kind it is binding. Background: In an ELISA, binding on a coated surface is turned into a signal by an enzyme label.

The IC50 is the midpoint of a concentration-inhibition curve. A low value points to inhibition by little substance.

T1 sequence (P16791 1-181): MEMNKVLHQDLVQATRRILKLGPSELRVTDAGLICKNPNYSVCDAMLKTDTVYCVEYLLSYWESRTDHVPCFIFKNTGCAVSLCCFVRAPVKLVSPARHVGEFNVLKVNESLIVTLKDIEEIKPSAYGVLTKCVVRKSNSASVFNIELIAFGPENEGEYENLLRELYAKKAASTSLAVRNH
T1 sequence (P16794 50-292): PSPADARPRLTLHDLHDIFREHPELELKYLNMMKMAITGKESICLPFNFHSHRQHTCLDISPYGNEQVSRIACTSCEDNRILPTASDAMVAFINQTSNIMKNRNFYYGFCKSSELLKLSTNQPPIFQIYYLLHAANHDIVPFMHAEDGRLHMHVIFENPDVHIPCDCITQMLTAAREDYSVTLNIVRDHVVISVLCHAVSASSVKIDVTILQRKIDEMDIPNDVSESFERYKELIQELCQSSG

`O=C(O)c1ccccc1-c1c2cc(Br)c(=O)[c]([Hg+])c-2oc2cc(O)c(Br)cc12` [P10G08, merbromin]: inhibition was half-maximal at 38 nM (IC50).
